Source: patent publication US5807850A, “Therapeutic agent for osteoporosis and triazepine compound” (Japan Tobacco, Inc., priority 1994, dated 1998)
Where a name gives a salt, the structure may show the parent alone.

Tests used:
[1] = tested on: lumbar spine (L4-5) vertebral body of ovariectomized rats; test: Suppression of bone mass decrease in ovariectomized rats (osteoporosis model rats); assay type: in vivo, Female SD rats; conditions: 12 weeks, Control 46.1 ± 0.5, Normal control 56.3 ± 1.4
Experimental: Experimental Example 2 suppression of bone mass decrease
The suppressive effect of the compound of the present invention on the bone mass decrease was tested using the ovariectomized rats (osteoporosis model rats).
Female SD rats (13 weeks of age) were subjected to bilateral ovariectomies under anesthesia with Nembutal (50 mg/kg/ml, i.p.; Dai-Nippon Pharmaceutical). At the same time, a sham control group that was subjected to sham surgery without removing ovaries was prepared. The next day of the operation, the rats were grouped in such a manner that the bone mineral density (hereinafter abbreviated as BMD) of each group would reach an average. The BMD was determined by their bone mineral density of lumbar spine (L 4-5) that was measured with a DXA bone densitometer (DCS-600 R, Aloka) under ether anesthesia. The test compounds were suspended in 0.5% hydroxypropylmethylcellulose (hereinafter abbreviated as HPMC, Shin-Etsu Chemical Industries, Ltd.) and they were administered orally at the doses of 0.3, 1.0 and 3.0 mg/kg (5 ml/kg:) for 12 weeks daily from the day following the operation. As a positive control, 17 β-estradiol (Sigma) was dissolved in 5% benzyl alcohol and 95% corn oil, and administered subcutaneously at a dose of 50 μg/kg (1 ml/kg) twice a week for 12 weeks. 0.5% HPMC was administered orally to the normal control and the control for 12 weeks at 5 ml/kg. The next day of the final administration, the rats were exsanguinated and killed under ether anesthesia and the lumbar spine (L4-5) was recovered. The soft tissues and processes were removed from the obtained lumbar spine and BMD of the vertebral body (L4-5) was determined with DCS-600 R (Aloka).
The results are shown by mean±S.E. of the respective groups and the statistical evaluations of the effect of respective groups were made by one-way analysis of variance. The significance was ascribed at less than 5%.

calvaria = test: Inhibition of bone resorption (45Ca release from calvaria stimulated with hPTH (1-34), method of Raisz); assay type: cell-based, new born ICR mouse; conditions: Mus musculus, 72 h; 45Ca release, 50 nM hPTH (1-34), 3 days incubation; test concentrations 0.04, 0.2 and 1 μM; mean of 4 pairs; read-out: IC50 (inhibition of bone resorption)
Source text: The determination of the inhibitory action on the bone resorption was basically in accordance with the method of Raisz [J. Clin. Invest. vol.
A new born ICR mouse (one or two days old) was intraperitoneally administered with 1.5μ Ci ^45 Ca (isotope of calcium as CaCl2 solution) and calvaria was aseptically removed the next day. The calvaria was split into two along the central suture line, and one of them was used as a control and the other was used as a test compound. The calvaria was preincubated at 37° C. for 2 days in BGJb medium [0.5 ml, Fitton-Jackson modification, GIBCO Laboratories, USA, containing bovine serum albumin 1 mg/ml] added with a test compound to the concentrations of 0.04 μM, 0.2 μM and 1 μM and then in the above-mentioned medium containing 50 nM hPTH (1-34) for further 3 days. After the incubation, the ^45 Ca radioactivity in the medium and the bone was determined, and the proportion (%) of ^45 Ca released from the bone into the medium was calculated by the following formula.
Using the bone obtained from the same mouse and treated in the same manner without adding a test compound, as a control, the proportion (%) relative to the control group was determined according to the following formula.

[2] = 0.3 mg/kg p.o., daily, n=9, mean ± S.E.
[3] = 1 mg/kg p.o., daily, n=8, mean ± S.E., *p < 0.05
[4] = 3 mg/kg p.o., daily, n=9, mean ± S.E., **p < 0.01

Row | SMILES | IC50 (calvaria) | other results
1 | C[C@]12CC[C@@H]3c4ccc(O)cc4CC[C@H]3[C@@H]1CC[C@@H]2O [17 β-estradiol, reference compound] | – | BMD of body of vertebra ([1]; positive control, 0.05 mg/kg s.c., twice a week, n=8, mean ± S.E.): 53.5 ± 0.7 mg/cm^2
2 | Cc1nnc2n1-c1ccccc1C(c1ccc(Cl)cc1)=NN2Cc1cccnc1 [Example 54, 6-(4-Chlorophenyl)-1-methyl-4-(pyridin-3-ylmethyl)-4H-2,3,4,5,10b-pentaazabenz[e]azulene] | 540 nM | BMD of body of vertebra [1, 2]: 46.2 ± 0.4 mg/cm^2; BMD of body of vertebra [1, 3]: 47.3 ± 0.6 mg/cm^2; BMD of body of vertebra [1, 4]: 51.6 ± 0.4 mg/cm^2
3 | Cc1ccc2c(c1)-n1c(C)nnc1N(Cc1ccncc1)N=C2c1ccccc1 [Example 131, 1,9-Dimethyl-6-phenyl-4-(pyridin-4-ylmethyl)-4H-2,3,4,5,10b-pentaazabenz[e]azulene] | 990 nM | BMD of body of vertebra [1, 2]: 46.5 ± 0.8 mg/cm^2; BMD of body of vertebra [1, 3]: 48.5 ± 0.5 mg/cm^2; BMD of body of vertebra [1, 4]: 51.3 ± 0.9 mg/cm^2
4 | CCc1cc2c(s1)-n1c(C)nnc1N(Cc1cccnc1)N=C2c1ccc(Cl)cc1 [Example 141, 4-(4-Chlorophenyl)-2-ethyl-9-methyl-6-(pyridin-3-ylmethyl)-6H-5,6,7,8,9a-pentaazathien[2,3-e]azulene] | 680 nM | –
5 | CCc1cc2c(s1)-n1c(C)nnc1N(Cc1ccncc1)N=C2c1ccc(Cl)cc1 [Example 142, 4-(4-Chlorophenyl)-2-ethyl-9-methyl-6-(pyridin-4-ylmethyl)-6H-5,6,7,8,9a-pentaazathien[2,3-e]azulene] | 450 nM | –
6 | Cc1cc2c(s1)-n1c(C)nnc1N(Cc1cccnc1)N=C2c1ccccc1 [Example 143, 2,9-Dimethyl-4-phenyl-6-(pyridin-3-ylmethyl)-6H-5,6,7,8,9a-pentaazathien[2,3-e]azulene] | 340 nM | –
7 | Cc1cc2c(s1)-n1c(C)nnc1N(Cc1ccncc1)N=C2c1ccccc1 [Example 144, 2,9-Dimethyl-4-phenyl-6-(pyridin-4-ylmethyl)-6H-5,6,7,8,9a-pentaazathien[2,3-e]azulene] | 270 nM | –
8 | Cc1sc2c(c1C)C(c1ccccc1)=NN(Cc1cccnc1)c1nnc(C)n1-2 [Example 145, 2,3,9-Trimethyl-4-phenyl-6-(pyridin-3-ylmethyl)-6H-5,6,7,8,9a-pentaazathien[2,3-e]azulene] | 120 nM | –
9 | Cc1sc2c(c1C)C(c1ccccc1)=NN(Cc1ccncc1)c1nnc(C)n1-2 [Example 146, 2,3,9-Trimethyl-4-phenyl-6-(pyridin-4-ylmethyl)-6H-5,6,7,8,9a-pentaazathien[2,3-e]azulene] | 100 nM | –
10 | CCc1cc2c(s1)-n1c(C)nnc1N(Cc1cccnc1)N=C2c1ccccc1 [Example 147, 2-Ethyl-9-methyl-4-phenyl-6-(pyridin-3-ylmethyl)-6H-5,6,7,8,9a-pentaazathien[2,3-e]azulene] | 810 nM | –
11 | CCc1cc2c(s1)-n1c(C)nnc1N(Cc1ccncc1)N=C2c1ccccc1 [Example 148, 2-Ethyl-9-methyl-4-phenyl-6-(pyridin-4-ylmethyl)-6H-5,6,7,8,9a-pentaazathien[2,3-e]azulene] | 680 nM | –
12 | COc1ccc(C2=NN(Cc3cccnc3)c3nnc(C)n3-c3sc(C)c(C)c32)cc1 [Example 149, 4-(4-Methoxyphenyl)-2,3,9-trimethyl-6-(pyridin-3-ylmethyl)-6H-5,6,7,8,9a-pentaazathien[2,3-e]azulene] | 180 nM | –
13 | COc1ccc(C2=NN(Cc3ccncc3)c3nnc(C)n3-c3sc(C)c(C)c32)cc1 [Example 150, 4-(4-Methoxyphenyl)-2,3,9-trimethyl-6-(pyridin-4-ylmethyl)-6H-5,6,7,8,9a-pentaazathien[2,3-e]azulene] | 29 nM | –
14 | Cc1nnc2n1-c1ccccc1C(c1ccc(Cl)cc1)=NN2Cc1ccc(O)cc1 [Example 184, 6-(4-Chlorophenyl)-4-(4-hydroxybenzyl)-1-methyl-4H-2,3,4,5,10b-pentaazabenz[e]azulene] | 560 nM | –
15 | CCOc1ccc(CN2N=C(c3ccc(Cl)cc3)c3ccccc3-n3c(C)nnc32)cc1 [Example 186, 6-(4-Chlorophenyl)-4-(4-ethoxybenzyl)-1-methyl-4H-2,3,4,5,10b-pentaazabenz[e]azulene] | 790 nM | –
16 | CC(=O)Nc1ccc(CN2N=C(c3ccc(Cl)cc3)c3ccccc3-n3c(C)nnc32)cc1 [Example 189, 4-(4-Acetylaminobenzyl)-6-(4-chlorophenyl)-1-methyl-4H-2,3,4,5,10b-pentaazabenz[e]azulene] | 260 nM | –
17 | Cc1nnc2n1-c1ccccc1C(c1ccc(Cl)cc1)=NN2Cc1ccc(N(C)C)cc1 [Example 191, 6-(4-Chlorophenyl)-4-(4-dimethylaminobenzyl)-1-methyl-4H-2,3,4,5,10b-pentaazabenz[e]azulene hydrochloride] | 740 nM | –
